Laboratory results: article PMC11477621, “Design, Synthesis, and Biological Evaluation of HDAC Inhibitors Containing Natural Product-Inspired N-Linked 2-Acetylpyrrole Cap” (Molecules, 2024)

Columns and labels:
HDAC1 = target: T1, HDAC1 (Homo sapiens, UniProt Q13547); assay: HDAC inhibition assay (HTRF), HDAC1; type: biochemical; settings: for IC50: read-out: IC50 ± SD, HDAC1;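 for all read-outs here: HTRF detection with streptavidin-XL665 plus Eu(K)-labelled anti-H3K9me0 antibody, two independent runs with duplicate wells per concentration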
T1 construct: purchased BPS #50001
T1 sequence (Q13547 whole entry): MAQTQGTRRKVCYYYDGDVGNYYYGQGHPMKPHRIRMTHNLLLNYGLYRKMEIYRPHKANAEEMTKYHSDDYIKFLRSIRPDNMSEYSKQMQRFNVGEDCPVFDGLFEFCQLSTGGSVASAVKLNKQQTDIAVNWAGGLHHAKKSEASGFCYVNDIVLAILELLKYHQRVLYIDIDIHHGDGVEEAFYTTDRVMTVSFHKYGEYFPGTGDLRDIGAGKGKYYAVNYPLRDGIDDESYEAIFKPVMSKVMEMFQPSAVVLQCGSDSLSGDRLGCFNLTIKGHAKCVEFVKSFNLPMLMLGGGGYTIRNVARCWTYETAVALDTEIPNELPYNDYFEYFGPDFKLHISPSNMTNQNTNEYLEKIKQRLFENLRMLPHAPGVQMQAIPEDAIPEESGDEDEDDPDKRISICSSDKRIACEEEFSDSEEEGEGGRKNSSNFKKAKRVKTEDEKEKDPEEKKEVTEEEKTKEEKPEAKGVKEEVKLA
Experimental: (§2) Then, SA-XL665 (#610SAXLG, Cisbio, Bedford, MA, USA) and anti-H3K9me0-Eu(K) (#61KB0KAD, Cisbio, USA) were added. […] The IC50 value of the compounds was calculated using GraphPad 7.0 software. Each set of experiments was independently repeated twice, with two replicate wells per concentration each time.

HDAC6 = target: T2, HDAC6 (Homo sapiens, UniProt Q9UBN7); assay: HDAC inhibition assay (HTRF), HDAC6; type: biochemical; settings: for IC50: read-out: IC50 ± SD, HDAC6
T2 construct: purchased BPS #50006
T2 sequence (Q9UBN7 1-1215): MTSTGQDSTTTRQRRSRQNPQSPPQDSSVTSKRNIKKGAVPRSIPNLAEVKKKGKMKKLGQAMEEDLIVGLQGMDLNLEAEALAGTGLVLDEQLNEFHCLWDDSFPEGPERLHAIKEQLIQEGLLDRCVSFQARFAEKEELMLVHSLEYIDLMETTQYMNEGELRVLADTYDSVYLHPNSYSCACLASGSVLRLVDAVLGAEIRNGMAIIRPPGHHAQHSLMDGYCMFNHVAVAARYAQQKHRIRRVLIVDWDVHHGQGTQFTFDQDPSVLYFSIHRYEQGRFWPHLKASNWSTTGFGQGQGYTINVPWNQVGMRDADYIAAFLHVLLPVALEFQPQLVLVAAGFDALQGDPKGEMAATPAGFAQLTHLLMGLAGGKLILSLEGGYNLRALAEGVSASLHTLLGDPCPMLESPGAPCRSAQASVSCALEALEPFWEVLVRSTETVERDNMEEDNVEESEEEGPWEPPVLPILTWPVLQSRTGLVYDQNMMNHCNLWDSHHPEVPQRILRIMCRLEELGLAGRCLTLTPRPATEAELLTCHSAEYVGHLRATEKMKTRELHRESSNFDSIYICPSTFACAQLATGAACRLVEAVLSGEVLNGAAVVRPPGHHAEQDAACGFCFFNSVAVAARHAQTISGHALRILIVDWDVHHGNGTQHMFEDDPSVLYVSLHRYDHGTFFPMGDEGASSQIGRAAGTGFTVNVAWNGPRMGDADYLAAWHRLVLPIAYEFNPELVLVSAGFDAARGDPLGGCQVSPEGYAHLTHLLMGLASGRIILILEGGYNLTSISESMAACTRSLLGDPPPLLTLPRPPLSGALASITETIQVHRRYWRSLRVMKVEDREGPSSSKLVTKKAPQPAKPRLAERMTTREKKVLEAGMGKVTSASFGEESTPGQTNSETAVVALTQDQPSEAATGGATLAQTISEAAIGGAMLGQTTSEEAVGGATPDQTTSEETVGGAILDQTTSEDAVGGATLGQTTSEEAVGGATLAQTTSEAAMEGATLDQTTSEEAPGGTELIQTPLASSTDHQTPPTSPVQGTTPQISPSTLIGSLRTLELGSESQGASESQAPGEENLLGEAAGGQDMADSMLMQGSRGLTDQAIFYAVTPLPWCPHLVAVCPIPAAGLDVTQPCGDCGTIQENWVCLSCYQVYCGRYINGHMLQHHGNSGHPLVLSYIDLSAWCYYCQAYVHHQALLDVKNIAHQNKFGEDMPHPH
Experimental: as §2

[1] = system: HCT-116 (human colon cancer cell line); assay: CCK8 cell viability assay, HCT-116; type: cell-based; settings: 72 h, read-out: Proliferation inhibition IC50 ± SD, HCT-116
Experimental: (§1) The CCK8 (#AC11L054, Life ilab, Shanghai, China) method was used to detect the cells’ proliferation. Cells were seeded into a 96-well culture plate at an appropriate density. […] IC50 values were estimated using the four-parameter method. Each set of experiments was repeated independently three times with three replicate wells per concentration each time.

[2] = system: HL-60 (human leukemia cell line); assay: CCK8 cell viability assay, HL-60; type: cell-based; settings: 72 h, read-out: Proliferation inhibition IC50 ± SD, HL-60
Experimental: as §1

[3] = system: RPMI-8226 (human myeloma cell line); assay: CCK8 cell viability assay, RPMI-8226; type: cell-based; settings: 72 h, read-out: Proliferation inhibition IC50 ± SD, RPMI-8226
Experimental: as §1

HDAC3 = HDAC3 (Homo sapiens, UniProt O15379); assay: HDAC inhibition assay (HTRF), HDAC3;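 note: HTRF detection with streptavidin-XL665 and a Eu cryptate-labelled antibody against unmodified H3K9, two independent runs with duplicate wells at each concentration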
HDAC3, sequence (O15379 whole entry): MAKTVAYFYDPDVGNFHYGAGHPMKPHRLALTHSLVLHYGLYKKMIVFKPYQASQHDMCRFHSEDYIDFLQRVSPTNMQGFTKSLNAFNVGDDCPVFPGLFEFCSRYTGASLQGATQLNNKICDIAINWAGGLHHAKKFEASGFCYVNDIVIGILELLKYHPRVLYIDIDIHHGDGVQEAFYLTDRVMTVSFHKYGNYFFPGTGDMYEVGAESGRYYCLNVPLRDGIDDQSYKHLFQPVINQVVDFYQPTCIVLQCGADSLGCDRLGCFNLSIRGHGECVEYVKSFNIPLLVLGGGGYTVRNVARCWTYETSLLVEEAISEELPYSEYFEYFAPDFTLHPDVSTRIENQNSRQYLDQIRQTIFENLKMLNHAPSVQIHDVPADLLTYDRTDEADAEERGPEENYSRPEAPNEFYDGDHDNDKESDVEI
HDAC3, sequence (Q9Y618 395-489 partner limits assumed): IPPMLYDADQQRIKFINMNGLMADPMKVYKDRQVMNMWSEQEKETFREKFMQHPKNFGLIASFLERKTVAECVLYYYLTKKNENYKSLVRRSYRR
Experimental: as §2

[4] = system: Ac-tubulin in RPMI-8226 cells; assay: Western blot of Ac-tubulin; type: cell-based, human; settings: tested concentrations, 24 h
Experimental: RPMI-8226 cells were seeded in six-well plates and treated with compounds for 24 h. Cells were lysed with 1× SDS loading buffer (50 mM Tris pH 6.8, 100 mM DTT, 2% SDS, 0.1% bromophenol blue, 10% glycerol), and then centrifuged at 12,000 rpm for 5 min at 4 °C. Cell extracts were probed with antibodies Ac-Tubulin (#5335T, CST, Kansas City, MO, USA), α-Tubulin (#2144S, CST, Kansas City, MO, USA), AcH3 (#ab39139, active motif, Carlsbad, CA, USA), Histone H3 (#17168-1-AP, Proteintech, Chicago, IL, USA), GAPDH (#60004-1-1g, Proteintech, Chicago, IL, USA), Goat Anti-Mouse IgG, H&L Chain Specific Peroxidase Conjugate (#401215, Calbiochem, Darmstadt, Germany), Goat Anti-Rabbit IgG, or H&L Chain Specific Peroxidase Conjugate (#401353, Calbiochem, Germany), then detected using Bio-RAD power pal Basic (#041BR66615, BioRad Laboratories, Hercules, CA, USA), Bio-RAD Mini-PROTEAN Tetrade System (#IEC/EN 61010-1, BioRad Laboratories, Hercules, CA, USA), or Bio-RAD Chemi Touch Imagin (BioRad Laboratories, Hercules, CA, USA).

[5] = read-out: (%) Inhibition of HDAC3

IC50 (HDAC1) [µM]	IC50 (HDAC6) [µM]	IC50 [1] [µM]	IC50 [2] [µM]	IC50 [3] [µM]	IC50 (HDAC3) [µM]	inhibition at 1 µM (HDAC1) [%]	inhibition at 1 µM (HDAC6) [%]	inhibition at 1 µM (HDAC3; [5]) [%]	inhibition at 10 µM (HDAC1; at 10 μM) [%]	inhibition at 10 µM (HDAC6; at 10 μM) [%]	inhibition at 10 µM (HDAC3; [5]) [%]	Compound	Ac-α-tubulin protein expression [4]
0.0519 ± 0.00673	0.0142 ± 0.00124	> 30	> 30	> 30	0.04553 ± 0.00023	–	–	–	–	–	–	CC(=O)c1cccn1CCCCCCC(=O)NO [Compound 3d, 7-(2-Acetyl-1H-pyrrol-1-yl)-N-hydroxyheptanamide]	–
0.426 ± 0.0138	> 10	–	–	–	> 10	–	–	–	–	–	–	CC(=O)c1cccn1CCCCC(=O)NO [Compound 3b, 5-(2-Acetyl-1H-pyrrol-1-yl)-N-hydroxypentanamide]	–
0.101 ± 0.0257	0.0164 ± 0.00631	26.4 ± 4.1	19.8 ± 1.88	> 30	0.129 ± 0.0516	–	–	–	–	–	–	O=C(CCCCCCn1cccc1)NO [Compound 5a, N-hydroxy-7-(1H-pyrrol-1-yl)heptanamide]	–
–	–	> 30	> 30	> 30	–	96.5	92.4	93.2	–	–	–	O=C(CCCCCCn1ccc2ccc(F)cc21)NO [Compound 5h, 7-(6-Fluoro-1H-indol-1-yl)-N-hydroxyheptanamide]	–
> 10	> 10	–	–	–	> 10	–	–	–	–	–	–	CC(=O)c1cccn1Cc1cn(CCc2ccc(C(=O)Nc3ccc(Cl)cc3N)cc2)nn1 [Compound 19c, 4-(2-(4-((2-Acetyl-1H-pyrrol-1-yl)methyl)-1H-1,2,3-triazol-1-yl)ethyl)-N-(2-amino-4-chlorophenyl)benzamide]	–
> 10	> 10	–	–	–	> 10	–	–	–	–	–	–	COc1ccc(NC(=O)c2ccc(CCn3cc(Cn4cccc4C(C)=O)nn3)cc2)c(N)c1 [Compound 19e, 4-(2-(4-((2-Acetyl-1H-pyrrol-1-yl)methyl)-1H-1,2,3-triazol-1-yl)ethyl)-N-(2-amino-4-methoxyphenyl)benzamide]	–
–	–	> 30	> 30	> 30	–	96.1	91.5	93.5	–	–	–	Cc1ccc2c(ccn2CCCCCCC(=O)NO)c1 [Compound 5g, N-hydroxy-7-(5-methyl-1H-indol-1-yl)heptanamide]	–
0.00448 ± 0.00243	≤ 0.0017	> 30	> 30	> 30	0.00182 ± 0.00078	–	–	–	–	–	–	O=C(CCCCCCn1ccc2cc(F)ccc21)NO [Compound 5i, 7-(5-Fluoro-1H-indol-1-yl)-N-hydroxyheptanamide]	–
0.0824 ± 0.0312	0.0155 ± 0.0029	–	–	–	0.085 ± 0.00121	–	–	–	–	–	–	CC(=O)c1cccn1CCCCCCCC(=O)NO [Compound 3e, 8-(2-Acetyl-1H-pyrrol-1-yl)-N-hydroxyoctanamide]	–
–	–	> 30	> 30	> 30	–	96.8	92.6	94.4	–	–	–	O=C(CCCCCCn1ccc2ccccc21)NO [Compound 5f, N-hydroxy-7-(1H-indol-1-yl)heptanamide]	–
> 10	> 10	–	–	–	> 10	–	–	–	–	–	–	CC(=O)c1cccn1CCCC(=O)NO [Compound 3a, 4-(2-Acetyl-1H-pyrrol-1-yl)-N-hydroxybutanamide]	–
–	–	> 30	> 30	> 30	–	96.2	90.3	92.2	–	–	–	O=C(CCCCCCn1ccc2cc(Br)ccc21)NO [Compound 5k, 7-(5-Bromo-1H-indol-1-yl)-N-hydroxyheptanamide]	–
–	–	17.1 ± 8.69	28 ± 0.56	11.7 ± 1.75	–	–	–	–	77.6	89.5	79.9	CC(=O)c1cccn1CCc1ccc(C(=O)NO)cc1 [Compound 11, 4-(2-(2-Acetyl-1H-pyrrol-1-yl)ethyl)-N-hydroxybenzamide]	–
0.00242 ± 0.00036	0.00231 ± 0.00034	> 30	> 30	> 30	0.00118 ± 6e-05	–	–	–	–	–	–	N#Cc1ccc2c(ccn2CCCCCCC(=O)NO)c1 [Compound 5l, 7-(5-Cyano-1H-indol-1-yl)-N-hydroxyheptanamide]	–
–	–	–	–	–	–	–	–	–	–	–	–	Nc1ccccc1NC(=O)c1ccc(CNC(=O)OCc2cccnc2)cc1 [MS-275, entinostat, reference compound]	no discernible effect
0.0542 ± 0.00874	0.00767 ± 0.00106	23 ± 7.03	12.9 ± 0.75	19.9 ± 7.71	0.0582 ± 0.00464	–	–	–	–	–	–	CCC(=O)c1cccn1CCCCCCC(=O)NO [Compound 5b, N-hydroxy-7-(2-propionyl-1H-pyrrol-1-yl)heptanamide]	–
0.118 ± 0.0308	0.0823 ± 0.0152	–	–	–	0.138 ± 0.0186	–	–	–	–	–	–	CC(=O)c1cccn1CCCCCC(=O)NO [Compound 3c, 6-(2-Acetyl-1H-pyrrol-1-yl)-N-hydroxyhexanamide]	–
0.0137 ± 0.00439	0.00974 ± 0.00637	19.8 ± 8.32	7.5 ± 1.55	17.9 ± 6.51	0.00308 ± 0.00097	–	–	–	–	–	–	O=C(CCCCCCn1cccc1C(=O)c1ccccc1)NO [Compound 5e, 7-(2-Benzoyl-1H-pyrrol-1-yl)-N-hydroxyheptanamide]	–
–	–	> 30	> 30	> 30	–	96.2	92.3	93.3	–	–	–	O=C(CCCCCCn1ccc2cc(Cl)ccc21)NO [Compound 5j, 7-(5-Chloro-1H-indol-1-yl)-N-hydroxyheptanamide]	–
0.052 ± 0.0219	0.0112 ± 0.00476	> 30	21.8 ± 10.7	> 30	0.0495 ± 0.00292	–	–	–	–	–	–	COC(=O)c1cccn1CCCCCCC(=O)NO [Compound 5d, Methyl 1-(7-(hydroxyamino)-7-oxoheptyl)-1H-pyrrole-2-carboxylate]	–
–	–	4.67 ± 0.53	0.5 ± 0.08	10.2 ± 1.02	–	–	–	–	–	–	–	Nc1cc(F)ccc1NC(=O)c1ccc(CNC(=O)/C=C/c2cccnc2)cc1 [Chidamide, reference compound]	no discernible effect
> 10	> 10	–	–	–	> 10	–	–	–	–	–	–	CC(=O)c1cccn1Cc1cn(CCc2ccc(C(=O)Nc3ccc(F)cc3N)cc2)nn1 [Compound 19b, 4-(2-(4-((2-Acetyl-1H-pyrrol-1-yl)methyl)-1H-1,2,3-triazol-1-yl)ethyl)-N-(2-amino-4-fluorophenyl)benzamide]	–
> 10	> 10	–	–	–	> 10	–	–	–	–	–	–	CC(=O)c1cccn1Cc1cn(CCc2ccc(C(=O)Nc3cc(F)c(F)cc3N)cc2)nn1 [Compound 19d, 4-(2-(4-((2-Acetyl-1H-pyrrol-1-yl)methyl)-1H-1,2,3-triazol-1-yl)ethyl)-N-(2-amino-4,5-difluorophenyl)benzamide]	–
